# Columns and labels:
# [1] = test system: dendritic cells derived from human monocytes; experiment: Maturation of dendritic cells from human monocytes, surface markers by flow cytometry (Example 1); type: cell-based; settings: D8, TNF-alpha 200 IU/ml
# Experimental: Peripheral blood is taken from the subject concerned. This blood is then centrifuged for 20 minutes at 200 g so as to diminish the contamination of the peripheral blood cells by platelets. The upper part containing most of the platelets and the plasma is carefully removed before the mononucleated cells are purified by centrifuging them on a Ficoll separation gradient, the density of which is 1.077. The layer of mononucleated cells is recovered, then washed twice with PBS buffer and deposited on a gradient containing 4 discontinuous densities of Percoll in order to isolate the monocytes. This gradient is constituted by concentrations of Percoll in isotonic solution of 75% (6.5 ml), 50.5% (15 ml), 40% (3.5 ml) and 30% (3 ml) in a Dulbecco medium without magnesium nor calcium and containing 5% human serum. 75 to 100 millions of cells are thus deposited in each tube and centrifuged at 1000 g during 25 minutes at 4° C. The low density cells, principally the monocytes, are harvested at the interface between the concentrations 40% and 50.5%, and washed twice with PBS. They are then resuspended in a culture medium, then deposited on culture plates containing 6 wells at a density of 5×10^6 cells per well in a final volume of 3 ml and left to adhere for 1 hour at 37° C. This adhesion step can be replaced by an additional purification of the monocytes by means of a negative purification system using a mixture of monoclonal antibodies combining an anti-CD3, CD7, CD19, CD45A, CD56 and anti-IgG with the aid of a Macs type microbead system (Miltenyi Biotec).
# The cells are then placed in culture in culture wells at 37° C. under 5% CO2. The medium which consists of RPMI contains 200 IU/ml of recombinant human GM-CSF and 500 IU/ml of recombinant human IL-4 in a final volume of 6 ml. On day 3 and day 5, the cultures are renewed by removing 3 ml and adding 3 ml of fresh medium with the cytokines. […] The cells are harvested on day 8, washed and cultivated in the absence of stimulation for a further 3 days.
# At the end of the culture period, the quality of the maturation is assessed by measuring the expression of the molecules CD80, 83, 86, 14, 1a, HLA-DR at the surface of the cells.
# [2] = test system: CD34+ cells of human cord blood; experiment: Production of dendritic cells from CD34+ cells of human cord blood, cell markers (Example 3); type: cell-based; settings: TNF-α 200 IU/ml or RU 41740 10 μg/ml until D6
# Excerpt: The experimental conditions are similar to Example 2, except the fact that the cells are derived from cord blood:
# Purification: After Ficoll, the CD34+ cells represent 0.83% of the mononucleated cells (MNC).
# After purification by positive selection, 18.1% of CD34+ are obtained.
# Duplication: on D6, D7,D8, D10 and D12.
substance,measurement,setting,value
TNF-α,"CD14, % of labelled cells",[1]; experiment a,0.87%
same,"CD40, MFI",[1]; experiment a,1603
same,"CD54, % of labelled cells",[1]; experiment a,97.4%
same,"CD54, MFI",[1]; experiment a,295
same,"CD80, % of labelled cells",[1]; experiment a,62.1%
same,"CD80, MFI",[1]; experiment a,129
same,"CD83, % of labelled cells",[1]; experiment a,84.5%
same,"CD83, MFI",[1]; experiment a,173
same,"CD86, % of labelled cells",[1]; experiment a,98.8%
same,"CD86, MFI",[1]; experiment a,326
same,"HLA-DQ, % of labelled cells",[1]; experiment a,84.3%
same,"HLA-DQ, MFI",[1]; experiment a,157
same,"HLA-DR, % of labelled cells",[1]; experiment a,98.9%
same,"HLA-DR, MFI",[1]; experiment a,1225
same,"CD1a, % of labelled cells",[1]; experiment b,0.21%
same,"CD14, % of labelled cells",[1]; experiment b,0.61%
same,"CD40, % of labelled cells",[1]; experiment b,99.6%
same,"CD40, MFI",[1]; experiment b,1728
same,"CD54, % of labelled cells",[1]; experiment b,95.6%
same,"CD54, MFI",[1]; experiment b,255
same,"CD80, % of labelled cells",[1]; experiment b,70.5%
same,"CD80, MFI",[1]; experiment b,93.5
same,"CD83, % of labelled cells",[1]; experiment b,89.5%
same,"CD83, MFI",[1]; experiment b,196
same,"CD86, % of labelled cells",[1]; experiment b,99.5%
same,"CD86, MFI",[1]; experiment b,273
same,"HLA-DQ, % of labelled cells",[1]; experiment b,84.2%
same,"HLA-DQ, MFI",[1]; experiment b,183
same,"HLA-DR, % of labelled cells",[1]; experiment b,99.1%
same,"HLA-DR, MFI",[1]; experiment b,946
same,"CD14, % of labelled cells",[1]; experiment c,3.27%
same,"CD40, % of labelled cells",[1]; experiment c,99.3%
same,"CD40, MFI",[1]; experiment c,1480
same,"CD54, % of labelled cells",[1]; experiment c,98.2%
same,"CD54, MFI",[1]; experiment c,249
same,"CD83, % of labelled cells",[1]; experiment c,89%
same,"CD83, MFI",[1]; experiment c,166
same,"CD86, % of labelled cells",[1]; experiment c,99.5%
same,"CD86, MFI",[1]; experiment c,284
same,"HLA-DR, % of labelled cells",[1]; experiment c,99.4%
same,"HLA-DR, MFI",[1]; experiment c,694
same,"CD1a, percentage of labelled cells",[2]; D7,4.41%
same,"CD14, percentage of labelled cells",[2]; D7,32%
same,"CD16, percentage of labelled cells",[2]; D7,2.24%
same,"CD34, percentage of labelled cells",[2]; D7,19.79%
same,"CD45, percentage of labelled cells",[2]; D7,99.84%
same,"CD83, percentage of labelled cells",[2]; D7,1.09%
same,"CD86, percentage of labelled cells",[2]; D7,11.61%
same,"CD1a, percentage of labelled cells",[2]; D9,23.75%
same,"CD14, percentage of labelled cells",[2]; D9,59.6%
same,"CD16, percentage of labelled cells",[2]; D9,2.16%
same,"CD34, percentage of labelled cells",[2]; D9,2.53%
same,"CD45, percentage of labelled cells",[2]; D9,99.96%
same,"CD83, percentage of labelled cells",[2]; D9,4.24%
same,"CD86, percentage of labelled cells",[2]; D9,22.23%
same,"CD1a, percentage of labelled cells",[2]; D10,20.63%
same,"CD14, percentage of labelled cells",[2]; D10,60%
same,"CD16, percentage of labelled cells",[2]; D10,2.11%
same,"CD34, percentage of labelled cells",[2]; D10,2.26%
same,"CD45, percentage of labelled cells",[2]; D10,99.97%
same,"CD83, percentage of labelled cells",[2]; D10,2.46%
same,"CD86, percentage of labelled cells",[2]; D10,9.23%
same,"CD1a, percentage of labelled cells",[2]; D12,27.9%
same,"CD14, percentage of labelled cells",[2]; D12,66.77%
same,"CD34, percentage of labelled cells",[2]; D12,0.69%
same,"CD40, percentage of labelled cells",[2]; D12,75.91%
same,"CD45, percentage of labelled cells",[2]; D12,99.85%
same,"CD54, percentage of labelled cells",[2]; D12,74.66%
same,"CD83, percentage of labelled cells",[2]; D12,0.71%
same,"CD86, percentage of labelled cells",[2]; D12,13.94%
same,"HLA-DR, percentage of labelled cells",[2]; D12,81.34%
same,"CD1a, percentage of labelled cells",[2]; D13,36.13%
same,"CD14, percentage of labelled cells",[2]; D13,57.73%
same,"CD34, percentage of labelled cells",[2]; D13,0.45%
same,"CD40, percentage of labelled cells",[2]; D13,63.35%
same,"CD45, percentage of labelled cells",[2]; D13,99.69%
same,"CD54, percentage of labelled cells",[2]; D13,61.7%
same,"CD83, percentage of labelled cells",[2]; D13,3.19%
same,"CD86, percentage of labelled cells",[2]; D13,12.78%
same,"HLA-DR, percentage of labelled cells",[2]; D13,73.04%
same,"CD1a, percentage of labelled cells",[2]; D14,34.2%
same,"CD14, percentage of labelled cells",[2]; D14,46.77%
same,"CD34, percentage of labelled cells",[2]; D14,0.38%
same,"CD40, percentage of labelled cells",[2]; D14,64.56%
same,"CD45, percentage of labelled cells",[2]; D14,99.93%
same,"CD54, percentage of labelled cells",[2]; D14,64.4%
same,"CD83, percentage of labelled cells",[2]; D14,1.22%
same,"CD86, percentage of labelled cells",[2]; D14,19.33%
same,"HLA-DR, percentage of labelled cells",[2]; D14,57.84%

# Source: US20040152191A1 (priority 2001, published 2004)
